Measured values taken from the NIST ThermoML archive (doi:10.1021/je200305n).
± gives the expanded uncertainty stated by the source.

Conditions: Liquid

| vapor or sublimation pressure (337.42 K) [kPa] | Structure (SMILES) | vapor or sublimation pressure (329 K) [kPa] |
| --- | --- | --- |
|  | CC(C)=O [acetone] | 100 ± 1.3 |
| 100 ± 1.3 | CO [methanol] |  |
